Publication PMC10461232, “Structure-Based Design of Transport-Specific Multitargeted One-Carbon Metabolism Inhibitors in Cytosol and Mitochondria” (Journal of Medicinal Chemistry, 2023)
Read-outs that look alike come from different tables or passages of the source.

What was measured:
human GARFTase = biological target: T1, human GARFTase (Homo sapiens, UniProt P22102); assay: GARFTase inhibition assay, Ki (10-formyl THF to THF, absorbance 298 nm); assay type: biochemical; settings: purified His-GARFTase, 40 μM 10-formyl THF, 37 °C; mean (SD), at least 3 replicates
T1 construct: formyltransferase domain of human GARFTase (residues 808–1010); made in house; host or cells: E. coli Rosetta (DE3)pLysS
T1 sequence (P22102 808-1010): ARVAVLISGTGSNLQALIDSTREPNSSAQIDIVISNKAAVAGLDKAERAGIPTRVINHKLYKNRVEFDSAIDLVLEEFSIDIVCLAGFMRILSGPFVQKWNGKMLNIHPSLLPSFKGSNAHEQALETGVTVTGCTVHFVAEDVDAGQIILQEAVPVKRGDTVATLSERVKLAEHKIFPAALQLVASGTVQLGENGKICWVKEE

human ATIC = biological target: T2, human ATIC (Homo sapiens, UniProt P31939); assay: AICARFTase (ATIC) inhibition assay, Ki; assay type: biochemical; settings: for Ki: purified His-ATIC, AICARFTase activity, 50 μM 10-formyl THF, 25 °C, mean (SD), at least 3 replicates
T2 construct: N-terminal His6-tagged full-length human ATIC; made in house; host or cells: E. coli Rosetta (DE3)pLysS
T2 sequence (P31939 whole entry): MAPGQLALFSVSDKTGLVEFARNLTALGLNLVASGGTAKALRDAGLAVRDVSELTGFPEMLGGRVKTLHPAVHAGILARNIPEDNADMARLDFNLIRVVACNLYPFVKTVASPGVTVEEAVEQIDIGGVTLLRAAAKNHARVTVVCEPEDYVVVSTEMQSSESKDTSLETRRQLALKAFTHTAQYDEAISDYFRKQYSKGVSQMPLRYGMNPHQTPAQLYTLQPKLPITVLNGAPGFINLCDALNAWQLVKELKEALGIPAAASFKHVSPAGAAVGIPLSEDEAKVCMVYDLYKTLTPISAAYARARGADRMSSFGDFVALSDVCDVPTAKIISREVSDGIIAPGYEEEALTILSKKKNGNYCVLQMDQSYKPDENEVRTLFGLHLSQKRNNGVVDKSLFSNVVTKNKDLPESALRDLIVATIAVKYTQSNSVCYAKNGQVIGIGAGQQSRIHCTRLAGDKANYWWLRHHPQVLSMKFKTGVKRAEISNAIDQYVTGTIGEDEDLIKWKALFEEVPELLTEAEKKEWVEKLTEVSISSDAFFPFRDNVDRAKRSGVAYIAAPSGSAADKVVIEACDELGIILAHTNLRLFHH
Procedure: The cells were grown at 37 °C in 1 L cultures of LB media containing […] and […] until OD600 reached 0.6. Protein expression was induced by the addition of isopropyl β-D1-thiogalactopyranoside (IPTG, 500 μM).
His-ATIC was purified by Ni-NTA chromatography (Gold Biotechnology).[36] […] His-ATIC was eluted in 1 column volume fractions, 5 times with buffer containing 300 mM imidazole, 25 mM Tris-HCl, pH 7.5, 300 mM NaCl, and 5 mM β-Me. Size exclusion chromatography on a Superdex 200 16/60 (GE Healthcare) column was used for final purification using 20 mM Tris-HCl, pH 7.5, 150 mM NaCl, 50 mM KCl, 5 mM EDTA, and 5 mM dithiothreitol.
MTHFD2 activities were assayed by a reaction with methylene THF and NAD^+. NADH production was measured by fluorescence (excitation 340 nm, emission 480 nm). Reaction conditions included 100 nM MTHFD2, 5 μM methylene THF, and concentrations of small-molecule inhibitor ranging from 0.02 nM to 2000 nM; NAD^+ (2.5 mM) was added to initiate the reaction. The reaction buffer consisted of 50 mM Tris-HCl, pH 7.5, 250 mM NaCl, 5 mM magnesium chloride, 5% glycerol, and 0.5 mM TCEP. […] To assay SHMT1 or SHMT2 (SHMT1/2) enzymes, a coupled reaction with His-MTHFD2 in 200-fold molar excess was used where the production of NADH was monitored by fluorescence with excitation at 360 nm and emission at 470 nm at 25 °C. The reactions contained 5 nM His-SHMT1/2, 50 μM THF, 20 mM serine, 10 μM His-MTHFD2, 2.5 mM NAD^+, and a range of inhibitor concentrations (final concentrations). The reactions were performed in buffer containing 20 mM sodium phosphate, pH 7.5, 100 mM KCl, 0.2 mM EDTA, and 5 mM β-Me. […] To calculate IC50 values for each inhibitor, initial velocities were graphed as a function of inhibitor concentrations and fit with a three-parameter nonlinear regression (GraphPad Prism 8.0). The equation [Ki = IC50/([S]/KM + 1)] was used to convert IC50’s to Ki values.

[1] = system: R2 (MTXRIIOuaR2-4) CHO cells; assay: Growth inhibition, transporter-null R2 CHO cells; assay type: cell-based, Chinese hamster; settings: Cricetulus griseus, 96 h, read-out: IC50 R2
PC43-10 (RFC) CHO cells = assay: Growth inhibition, PC43-10 CHO cells expressing human RFC; assay type: cell-based, Chinese hamster; settings: Cricetulus griseus, 96 h, read-out: IC50 PC43-10 (RFC)
[2] = system: R2/PCFT4 (PCFT) CHO cells; assay: Growth inhibition, R2/PCFT4 CHO cells expressing human PCFT; assay type: cell-based, Chinese hamster; settings: Cricetulus griseus, 96 h, read-out: IC50 R2/PCFT4 (PCFT)
RT16 (FRα) CHO cells = assay: Growth inhibition, RT16 CHO cells expressing human FRα; assay type: cell-based, Chinese hamster
D4 (FRβ) CHO cells = assay: Growth inhibition, D4 CHO cells expressing human FRβ; assay type: cell-based, Chinese hamster; settings: for IC50: Cricetulus griseus, CHO
KB (RFC/PCFT/FRα) cells = assay: Growth inhibition, KB nasopharyngeal carcinoma cells; assay type: cell-based, human; settings: folate-free RPMI 1640, 2 nM leucovorin, mean (SE)
Procedure: The CHO cells were cultured in α-minimal essential medium (MEM) supplemented with 10% bovine calf serum (Fisher Scientific), penicillin (1000 U/mL)/streptomycin (1000 μg/mL), and 2 mM L-glutamine at 37 °C with 5% CO2. All of the R2 transfected cells (PC43-10, RT16, R2/PCFT4) were cultured in complete α-MEM media plus 1 mg/mL G418. Prior to the cytotoxicity assays (see below), RT16 and D4 cells were cultured for 3 days in complete folate-free RPMI 1640 (without added folate), and R2/PCFT4 and R2 cells were cultured in complete folate-free RPMI 1640 supplemented with dialyzed fetal bovine serum (Fisher Scientific) and 25 nM leucovorin plus 1 mg/mL G418. KB cells were routinely cultured in folate-free RPMI 1640 medium, supplemented with 10% fetal bovine serum (Fisher Scientific), penicillin-streptomycin solution, and 2 mM L-glutamine at 37 °C with 5% CO2.
For growth inhibition studies, cells (CHO, KB) were plated in 96-well dishes (∼2500–5000 cells/well, total volume of 200 μL medium) over a range of antifolate concentrations.[69],[77] The medium was folate-free RPMI 1640 with 10% dialyzed serum and antibiotics supplemented with 25 nM leucovorin for experiments with R2, PC43-10, and R2/PCFT4 cells. For experiments with RT16, D4, and KB cells, cells were cultured in folate-free RPMI medium with 10% dialyzed fetal bovine serum and antibiotics; the medium was supplemented with 2 nM leucovorin. […] Incubations were routinely for up to 96 h. Viable cells (reflecting cell viability) were assayed with Cell Titer Blue reagent (Promega, Madison, WI), with fluorescence measured (590 nm emission, 560 nm excitation) with a fluorescence plate reader.

HPAC (RFC/PCFT) cells = assay: Proliferation inhibition, HPAC pancreatic adenocarcinoma cells; assay type: cell-based, human; settings: HPAC cells, folate- and glycine-free RPMI, 25 nM leucovorin, mean (SE)
Text: (§1) The RFC-, PCFT-, and FR-null MTXRIIOua^R2–4 (R2), and RFC- (PC43-10), PCFT- (R2/PCFT4), FRα- (RT16), and FRβ- (D4) expressing CHO sublines were previously described.[62]−[64],[76] HPAC pancreatic cancer cells were generously provided by Dr. Yubin Ge (Karmanos Cancer Institute, Detroit, MI). Human pancreatic normal epithelial (HPNE) cells[67] were a gift from M. Oulette (University of Nebraska Medical Center, Omaha, NE). KB human nasopharyngeal carcinoma cells were purchased from the American Type Culture Collection (Manassas, VA). All human cell lines were validated by STR analysis by Genetica DNA Laboratories (Burlington, NC). Cell lines were tested for Mycoplasma by PCR using a Mycloplasma testing kit (Venor GeM Mycoplasma Detection Kit, Sigma). Frozen stocks were generated from authenticated Mycoplasma-free cultures.

HPNE (RFC) cells = assay: Proliferation inhibition, HPNE normal pancreatic epithelial cells; assay type: cell-based; settings: Homo sapiens, folate- and glycine-free RPMI, 25 nM leucovorin
Text: as §1

SHMT1 = biological target: T3, SHMT1 (Homo sapiens, UniProt P34896); assay: SHMT1 inhibition assay coupled with MTHFD2, Ki; assay type: biochemical; settings: purified His-SHMT1, 50 μM THF, 25 °C; mean (SD), at least 3 replicates
T3 construct: full-length SHMT1 with an N-terminal His6-tag; made in house; host or cells: E. coli Rosetta (DE3)pLysS
T3 sequence (P34896 1-483): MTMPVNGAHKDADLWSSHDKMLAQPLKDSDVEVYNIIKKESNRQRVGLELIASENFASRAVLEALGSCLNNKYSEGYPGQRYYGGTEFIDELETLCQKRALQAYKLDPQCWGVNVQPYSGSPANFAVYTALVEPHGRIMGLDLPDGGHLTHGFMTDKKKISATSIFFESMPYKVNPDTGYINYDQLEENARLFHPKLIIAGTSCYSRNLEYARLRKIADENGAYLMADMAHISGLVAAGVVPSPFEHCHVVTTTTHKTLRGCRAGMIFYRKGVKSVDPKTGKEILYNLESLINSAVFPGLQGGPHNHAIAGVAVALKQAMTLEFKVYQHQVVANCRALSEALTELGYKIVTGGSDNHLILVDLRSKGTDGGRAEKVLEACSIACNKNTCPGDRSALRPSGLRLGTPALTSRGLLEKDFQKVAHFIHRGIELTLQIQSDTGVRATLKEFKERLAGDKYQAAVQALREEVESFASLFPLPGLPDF
Procedure: Kinetic measurements were recorded in triplicate using a flat, black-bottom, black-walled 96-well plate (Greiner Bio-One, 655900) and a BioTek Synergy Neo2 Plate Reader. […] To assay SHMT1 or SHMT2 (SHMT1/2) enzymes, a coupled reaction with His-MTHFD2 in 200-fold molar excess was used where the production of NADH was monitored by fluorescence with excitation at 360 nm and emission at 470 nm at 25 °C. The reactions contained 5 nM His-SHMT1/2, 50 μM THF, 20 mM serine, 10 μM His-MTHFD2, 2.5 mM NAD^+, and a range of inhibitor concentrations (final concentrations). The reactions were performed in buffer containing 20 mM sodium phosphate, pH 7.5, 100 mM KCl, 0.2 mM EDTA, and 5 mM β-Me. A BioTek Synergy Neo2 Plate Reader was used to record kinetic measurements in triplicate in a UV-transparent 96-well plate (Costar 3635) for GARFTase and AICARFTase assays and a black-well, black-bottom 96-well plate (Corning 3603). To calculate IC50 values for each inhibitor, initial velocities were graphed as a function of inhibitor concentrations and fit with a three-parameter nonlinear regression (GraphPad Prism 8.0). The equation [Ki = IC50/([S]/KM + 1)] was used to convert IC50’s to Ki values.

[3] = transporter-null CHO cells, 25 nM leucovorin, mean (SE)
[4] = CHO cells expressing human RFC, 25 nM leucovorin, mean (SE)
[5] = CHO cells expressing human PCFT, 25 nM leucovorin, mean (SE)
[6] = Cricetulus griseus, 96 h, CHO cells expressing human FRα, 96 h, 2 nM leucovorin, mean (SE), read-out: IC50 RT16 (FRα)
[7] = 96 h, CHO cells expressing human FRβ, 96 h, 2 nM leucovorin, mean (SE), read-out: IC50 D4 (FRβ)
[8] = CHO cells expressing human FRα, 96 h, 2 nM leucovorin, mean (SE), read-out: IC50 RT16 (FRα)

Compound	Ki (human ATIC) [nM]	IC50 (KB (RFC/PCFT/FRα) cells; Homo sapiens, KB) [nM]	IC50 (HPAC (RFC/PCFT) cells; Homo sapiens, HPAC) [nM]	Ki (human GARFTase) [nM]	IC50 [1, 3] [nM]	IC50 (PC43-10 (RFC) CHO cells; [4]) [nM]	IC50 [2, 5] [nM]	IC50 (RT16 (FRα) CHO cells; [6]) [nM]	IC50 (D4 (FRβ) CHO cells; [7]) [nM]	IC50 (HPNE (RFC) cells) [nM]	IC50 [2] [nM]	IC50 (RT16 (FRα) CHO cells; [8]) [nM]	IC50 (KB (RFC/PCFT/FRα) cells) [nM]	other results
Nc1nc2ccn(CCCSc3ccc(C(=O)N[C@@H](CCC(=O)O)C(=O)O)cc3)c2c(=O)[nH]1 [Compound 7, (4-((3-(2-Amino-4-oxo-3,4-dihydro-5H-pyrrolo[3,2-d]pyrimidin-5-yl)propyl)thio)benzoyl)-L-glutamic Acid]	4810	31.5	> 5000	–	> 1000	> 1000	–	< 3	–	> 5000	> 1000	3.13	31.5	–
Nc1nc2ccn(CCCc3ccc(C(=O)N[C@@H](CCC(=O)O)C(=O)O)cc3)c2c(=O)[nH]1 [Compound 2]	13400	6.73	310	–	> 1000	41.9	191	49.9	2.37	> 5000	–	–	–	difference between D4 (FRβ) and RT16 (FRα) IC50 (D4 (FRβ) CHO cells; RT16 versus D4 CHO cells): 20- to 40 fold; IC50 (HPAC (RFC/PCFT) cells): 310 nM
Nc1nc2ccn(CCCCc3ccc(C(=O)N[C@@H](CCC(=O)O)C(=O)O)c(F)c3)c2c(=O)[nH]1 [Compound 1, (4-(4-(2-Amino-4-oxo-3,4-dihydro-5H-pyrrolo[3,2-d]pyrimidin-5-yl)butyl)-2-fluorobenzoyl)-L-glutamic Acid]	–	1.3	196	3130	–	–	–	–	–	> 5000	479	–	1.25	IC50 ([1]; CHO): > 1000 nM; IC50 (PC43-10 (RFC) CHO cells): 224 nM; IC50 (RT16 (FRα) CHO cells; Cricetulus griseus, RT16, read-out: IC50 FRα (cell-based inhibition), Figure 14, from Table 3 (RT16 cells)): 1 nM; IC50 (D4 (FRβ) CHO cells; read-out: IC50 FRβ (cell-based inhibition), Figure 14, from Table 3 (D4 cells)): 1 nM

The next lines start with results.

Ki (human ATIC) [nM]	IC50 (KB (RFC/PCFT/FRα) cells; Homo sapiens, KB) [nM]	IC50 (HPAC (RFC/PCFT) cells; Homo sapiens, HPAC) [nM]	Compound	Ki (human GARFTase) [nM]	IC50 [1, 3] [nM]	IC50 (PC43-10 (RFC) CHO cells; [4]) [nM]	IC50 [2, 5] [nM]	IC50 (RT16 (FRα) CHO cells; [6]) [nM]	IC50 (D4 (FRβ) CHO cells; [7]) [nM]	IC50 (HPNE (RFC) cells) [nM]	IC50 [2] [nM]	IC50 (RT16 (FRα) CHO cells; [8]) [nM]	IC50 (KB (RFC/PCFT/FRα) cells) [nM]	other results
930	6	1600	Nc1nc2ccn(CCCCc3csc(C(=O)N[C@@H](CCC(=O)O)C(=O)O)c3F)c2c(=O)[nH]1 [Compound 14, (4-(4-(2-Amino-4-oxo-3,4-dihydro-5H-pyrrolo[3,2-d]pyrimidin-5-yl)butyl)-3-fluorothiophene-2-carbonyl)-L-glutamic Acid]	2490	> 1000	> 1000	> 1000	19.8	6.2	> 5000	–	–	–	fold better than 1, ATIC (human ATIC; ratio of Ki values relative to compound 1): ~4 fold
–	2.58	3210	Nc1nc2ccn(CCCCc3ccc(C(=O)N[C@@H](CCC(=O)O)C(=O)O)s3)c2c(=O)[nH]1 [Compound 16]	–	> 1000	> 1000	> 1000	< 3	–	> 5000	–	2.82	–	Ki (SHMT1): 1040 nM
